In patent publication US8729088B2, “Toll-like receptor modulators and treatment of diseases” (The Regents of the University of California, priority 2009, dated 2014):

Experiments:
C57BL/6 mice [1] = assay: Thioglycolate induced peritonitis (peritoneal neutrophil infiltration); conditions: 50 nmoles i.v. for three days before thioglycolate
Procedure: (§1) Peritoneal cells were collected four hours after TG injection. Total cells were counted by haematocytometer and neutrophils were morphologically identified.
(§2) 4 hours post TG injection total peritoneal cells were harvested and counted. Neutrophils were identified morphologically and counted.
(§3) One day after the last treatment, mice received intraperitoneal injection of 2 ml thioglycollate medium. […] Three hours after the thioglycollate injection, neutrophil infiltration to the peritoneum was evaluated.

mice = conditions: cited from earlier work
[2] = test system: pro-inflammatory cytokines (IL-6, TNF-α) in sera; assay: In vivo kinetics of pro-inflammatory cytokine induction after intravenous injection; set-up: species or system mouse; conditions: 200 nmol per animal i.v.
Procedure: The pharmacokinetics of pro inflammatory cytokine induction by TLR7 conjugates was examined using 6- to 8-week old C57BL/6 mice. […] Blood samples were collected 2, 4, 6, 24 or 48 hours after injections. Sera were separated and kept at −20° C. until use.

C57BL/6 mice [3] = conditions: mouse, in vivo
Procedure: as §1, §2, §3

Solubility observations = type: physicochemical
TLR7 = assay: Cytokine induction in BMDM from wild type and TLR7 deficient mice; type: cell-based, mouse; conditions: BMDM from TLR7 deficient mice
Procedure: In vitro measurements of cytokine induction were performed using the mouse leukemic monocyte macrophage cell line, RAW264.7. […] BMDM were prepared from C57BL/6 and TLR7 deficient mice as described in Wu, C. C et al., (2007) “Immunotherapeutic activity of a conjugate of a Toll-like receptor 7 ligand”, Proc Natl Acad Sci USA 104, 3990-5.
In general, RAW264.7 cells or BMDM were incubated with various concentrations of conjugates for 18 hours at 37° C., 5% CO2 and culture supernatants were collected. The levels of cytokines (IL-6, IL-12 or TNF-α in the supernatants were determined by ELISA (BD Biosciences Pharmingen, La Jolla, Calif.) (Cho, H. J et al., “Immunostimulatory DNA-based vaccines induce cytotoxic lymphocyte activity by a T-helper cell-independent mechanism” [see comments], Nat Biotechnol 18, 509-14 (2000)), and the results presented in FIG. 2A-D. Data are mean±SEM of triplicates and are representative of three independent experiments. Minimum detection levels of these cytokines were 15 pg/mL.

Question: With `COCCOc1nc(N)c2nc(O)n(Cc3ccccc3)c2n1` [SM, 9-benzyl-8-hydroxy-2-(2-methoxyethoxy) adenine, reference compound] as the compound, how does the “neutrophils recruited to the peritoneum” value (C57BL/6 mice [1]) read?
Answer: reduction

Question: What about the “total cells recruited to the peritoneum” value (C57BL/6 mice [1]) of the same compound?
Answer: reduction

Question: And the “adverse effects in mice” value (mice; Hayashi et al. 2008)?
Answer: anorexic effects and hypothermia

Question: And the “minimum dose that induced the anorectic reaction” value (mice; mucosal administration)?
Answer: 50 nmoles per mice

Question: And the “course of serum cytokine levels” value [2]?
Answer: declined rapidly after 2 hours

Question: What about the “adverse reaction compared to TG” value (C57BL/6 mice [3]) of the same compound?
Answer: no additional adverse reaction

Question: What about the “solubility in aqueous solution” value (Solubility observations) of the same compound?
Answer: insoluble

Question: What about the “IL-12 and IL-6 induction” value (TLR7) of the same compound?
Answer: little or no IL-12 and IL-6
